Measured values reported in patent publication US20250114313A1, “OLIGO-BENZAMIDE ANALOGS AND THEIR USE IN CANCER TREATMENT” (BOARD OF REGENTS, THE UNIVERSITY OF TEXAS SYSTEM, priority 2022, published 2025).
Entries after “also recorded” stand apart in the source; their conditions may differ. Like-named read-outs stand apart in the source and are kept apart here.

Legend:
[1] = tested on: ERα-positive breast cancer cells (MCF-7, ZR-75); assay: MTT cell viability, ERα-positive breast cancer cells; format: cell-based, Human; details: MCF-7 and ZR-75, read-out: anti-proliferative IC50
Description: (§1) Cell viability assays: Cells were seeded in 96-well plates (2×10^3 cells/well) one day before the treatment. Cells were treated with varying concentrations of ERX-41 or ERX-11 analogs for 3-6 days. Then effects of ERX-41 or ERX-11 analogs on cell viability were measured in triplicate or sextuplicate with multiple biological replicates using the WST-1 (Promega), MTT as previously described^33 or CellTiter-Glo 2.0 (Promega) assays.

[2] = earlier finding; cited from earlier work
[3] = tested on: TNBC cells (SUM-159, MDA-MB-231); assay: MTT cell viability, TNBC cells; format: cell-based, Human
Description: as §1

[4] = tested on: ERα-positive breast cancer cells (MCF-7, ZR-75); details: therapy-sensitive and therapy-resistant ERα-positive breast cancers; inventors' previous work; read-out: IC50, block of ERα signaling and ERα-driven proliferation; cited from earlier work
ER Alpha-LBD (GST) = target: T1, ER Alpha-LBD (GST) (Homo sapiens, UniProt P03372); assay: LanthaScreen TR-FRET ER alpha Coactivator Assay, antagonist mode; format: binding; details: 2 h incubation
T1 construct: 3.5 nM ER Alpha-LBD (GST); purchased life technologies A15885
T1 sequence (P03372 311-547 limits assumed): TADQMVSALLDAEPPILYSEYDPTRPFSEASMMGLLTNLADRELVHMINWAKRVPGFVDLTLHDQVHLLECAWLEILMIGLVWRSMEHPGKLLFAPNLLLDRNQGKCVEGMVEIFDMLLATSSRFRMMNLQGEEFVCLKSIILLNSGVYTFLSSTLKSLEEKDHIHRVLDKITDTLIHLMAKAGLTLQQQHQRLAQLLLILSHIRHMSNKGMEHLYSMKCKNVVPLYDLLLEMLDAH

[5] = tested on: SUM-159 cells with LIPA KO; assay: UPR induction and protein synthesis in SUM-159 cells with LIPA KO (RNA-seq, RT-qPCR, western); format: cell-based, Human; details: known ER stress inducers
Description: Western blotting: Whole cell lysates from breast cancer cells were prepared with 2× sample buffer (60 mM Tris-HCl, pH 6.8, 2% sodium dodecyl sulfate, 10% glycerol), and before loading mixed with loading buffer (5% 2-mercaptoethanol, 0.1% bromophenol blue) and boiled for denaturation, as previously described.^33 Proteins were separated by SDS-PAGE and subjected to Western analysis using antibodies. To detect nascent translated proteins, puromycin (final concentration 10 μg/mL) was added into cell plates 30 minutes before harvesting cells. Then samples were subjected to the Western blotting. Nascent proteins were detected by anti-puromycin antibody.
Real-time quantitative PCR (RT-qPCR): Total RNA was prepared from breast cancer cells using the RNeasy Mini Kit (Qiagen) according to the manufacturer protocols. Subsequently, total RNAs were reverse transcribed into cDNA using iScript Reverse Transcription Supermix (Bio-rad) and by using SYBR Green on an Illumina Real-Time PCR system.
RNA-sequencing: mRNA-seq sequencing library construction was performed using TruSeq RNA Library Preparation Kit (Illumina) according to the manufacturer's instructions. FASTQ reads from Genomics Core at UTSW were mapped to Human GRCh38 genome using HiSAT2 (RRID:SCR_015530). Differential expression analysis is performed using DEseq2 (RRID:SCR_015687). Abundances of transcripts are calculated using ballgown (Frazee et al. 2014). The values of Fragments Per Kilobase of transcript per Million mapped reads (FPKM) were used for Gene Set Enrichment Analysis (GSEA). GSEA was performed by using the GSEA software (RRID:SCR_005724) and C5 ontology gene sets (14765 gene sets in total). mRNA-seq data from this study are available from NCBI GEO under accession #GSE168800.

[6] = ERX-315 in syngeneic D2A1 tumor model, organ evaluation; format: in vivo, mice; details: syngeneic D2A1 tumors
[7] = tested on: ovarian cancer cells and breast cancer cells; assay: ERX-315 in cancer cell lines; format: cell-based
[8] = tested on: BC xenografts expressing the Y537S ERα mutant (ZR75, MCF7); assay: ERX-315 in therapy resistant BC xenografts (Y537S ERα mutant ZR75, MCF7); format: in vivo, mouse
TNBC = assay: ER stress, cell death and lysosomes in TNBC (discussion, no method); format: cell-based
LAL lipase activity = target: T2, LAL lipase activity (Homo sapiens, UniProt P38571); assay: Lipase activity assay (4-MUP), SUM-159 cell lysate; format: biochemical
T2 construct: heat stability of LAL or vinculin protein in SUM-159 cells; endogenous in cells; host or cells: SUM-159
T2 sequence (P38571 77-399): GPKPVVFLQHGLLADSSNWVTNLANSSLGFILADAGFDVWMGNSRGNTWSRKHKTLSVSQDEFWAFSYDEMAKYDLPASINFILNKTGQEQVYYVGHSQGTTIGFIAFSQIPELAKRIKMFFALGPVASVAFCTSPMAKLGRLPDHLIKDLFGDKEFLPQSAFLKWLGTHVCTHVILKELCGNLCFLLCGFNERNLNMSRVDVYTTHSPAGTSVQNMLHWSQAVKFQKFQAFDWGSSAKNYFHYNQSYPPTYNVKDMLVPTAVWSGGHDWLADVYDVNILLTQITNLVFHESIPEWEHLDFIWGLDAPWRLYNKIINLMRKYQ
Description: Lipase activity assay: Lipase activity assays were performed as described previously (Dairaku, et al)^37. Briefly, a 0.345 mM substrate solution was prepared from 1.2 mL of 13.3 mM 4-MUP and 42 mL of 100 mM sodium acetate buffer pH 4.0, 1.0% (v/v) Triton X-100 and 3.0 mL of 0.5% (w/v) cardiolipin. For the enzyme reaction, 50 μL of the substrate in buffer solution, 40 μL of diluted cell lysate and 10 μL of DMSO or 30 μM Lalistat2 or 30 μM ERX-41 were combined in a black 96-well plate. The plates were sealed with an adhesive aluminum film and incubated in a 37° C. incubator for 1 h. The reactions were terminated using 200 μL of 150 mM EDTA at pH 11.5. The fluorescence of the plates were read immediately with synergy H1 fluorescence microplate reader (BioTek) using a 365-nm excitation filter and a 450-nm emission filter. The LIPA lipase activity was calculated by subtracting the enzymatic activity of the inhibited (with Lalistat2) reaction from that of the uninhibited (without Lalistat2) reaction.

## CC(C)COc1cc(C(N)=O)ccc1NC(=O)c1ccc(NC(=O)c2ccc([N+](=O)[O-])c(OCCO)c2)c(OCC(C)C)c1 [ERX-11, reference compound]
[1]
  IC50: 200 to 500 nM
[2]
  oral bioavailability: orally bioavailable
[3]; MTT, SUM-159 and MDA-MB-231, read-out: IC50 against TNBC cells
  IC50: > 10000 nM
[3]; TNBC cells (lack expression of ERα)
  anti-tumor activity in TNBC cells: did not show anti-tumor activity
[4]
  IC50: 200 to 500 nM
ER Alpha-LBD (GST)
  interaction with ERα LBD: interact with ERG LBD

## C/C=C(/C)C(=O)O[C@H]1C(C)=C2[C@H]([C@@H]1OC(=O)CCCCCCC)[C@@](C)(OC(C)=O)C[C@H](OC(=O)CCC)[C@@]1(O)[C@H]2OC(=O)[C@@]1(C)O [thapsigargin, reference compound]
[5]
  inducibility of UPR genes in LIPA KO cells: preserved

## tunicamycin [reference compound]
[5]
  inducibility of UPR genes in LIPA KO cells: preserved

## CC(C)COc1cc(C(=O)Nc2ccc(C(=O)N[C@H]3CC[C@H](C(=O)Nc4cnc5ccccc5c4)CC3)cc2OCC(C)C)ccc1NC(=O)c1ccc(F)c(OCCO)c1 [ERX-315]
[6]
  immunogenicity, immune infiltrates in spleen, lymph nodes, kidney, liver: not immunogenic
[7]; FIG. 17
  effectiveness in cell culture models of cancer: effective in each cell line tested
[7]; read-out: IC50 against ovarian cancer cells and breast cancer cells
  IC50: 10 to 50 nM
[8]; histologic evaluation
  Ki67 proliferation indices of tumors: dramatically decreased K167 proliferation indices
[8]; oral, captisol formulation, listed as TK315
  activity against therapy resistant BC xenografts: decreased the growth and tumor weight; also recorded: potent activity
[8]; oral, listed as TK315
  mouse liver or body weight: No change in body weight; also recorded: no effect on mouse liver or body weight

## O=C(Oc1nsnc1N1CCCCC1)N1CCCCC1 [Lalistat 2]
TNBC
  induction of ER stress or cell death in TNBC: does not induce ER stress or cell death in TNBC
LAL lipase activity; LIPA-KO cells
  lipase function (other lipases) in LIPA-KO cells: lack of inhibitory activity on lipase function
LAL lipase activity; SUM-159 cells, 30 μM
  lipase activity of LIPA: attenuated lipase activity

## C[C@]12CC[C@@H]3c4ccc(O)cc4C[C@@H](CCCCCCCCC[S+]([O-])CCCC(F)(F)C(F)(F)F)[C@H]3[C@@H]1CC[C@@H]2O (stereo partly drawn) [fulvestrant]
ER Alpha-LBD (GST)
  interaction with ERα LBD: interact with ERG LBD
